In patent US8669378B2, “Process for synthesizing epicconone analogs” (Universite de Rouen, priority 2009, dated 2014):

Experiments:
Type in all cases: physicochemical
[1] = Absorbance of the adducts with butylamine in acetonitrile; conditions: Bioconjugated molecule (BuNH2) in CH3CN; for λ UV (nm), second maximum: longer-wavelength absorption maximum, used for excitation; for λ UV (nm), first maximum: shorter-wavelength absorption maximum
Experimental: (§1) Apparatus: • Acetonitrile: VWR HPLC quality • Micropipette: 5 μl, 10 μl, 200 μl, 1000 μl, • Eppendorf: Safe lock tube PCR • UV cuvette: Varian-Quartz 10 mm thick • Fluorescence cuvette: Hellma-Quartz 10 mm thick • Vortex: Bender & Hobein-Genie 2 • Centrifuge: Baky Bug • Absorbance spectrophotometer: Varian-Cary 50 scan • Fluorescence spectrophotometer: Varian-Cary Eclipse • Thermostated bath: Varian-Cary single cell peltier accessory Stock Solution:
(§2) Approximately exactly 1 to 2 mg of compound Ia-Io are weighed out in a 1.5 mL Eppendorf tube. The stock solutions are then prepared by adding exactly 1 mL of acetonitrile and the Eppendorf tubes are then stored protected from light.
30 μl of stock solution are placed in a 1.5 mL Eppendorf tube. At room temperature, 10 μl (or 30 μl in the case of Ik) of a 0.15 M solution of butylamine/acetonitrile are added and the medium is stirred by vortex and then centrifuged. After diluting to 1 mL by adding 960 μl of acetonitrile (or 940 μl in the case of Ik), the clear solution is transferred into a UV cuvette and then made up to 2 mL with acetonitrile. The analysis is then performed after producing a “blank” spectrum with a pure acetonitrile solution.

[2] = Fluorescence of the adducts with butylamine in acetonitrile; design: Δ Stokes: unit not given here; conditions: Bioconjugated molecule (BuNH2) in CH3CN; for Δ Stokes: emission minus excitation wavelength; for λ fluo (λ excitation) (nm): excitation at maximum-absorption wavelength; for Intensity normalized to 50 μM: fluorescence intensity
Experimental: as §1, §2
Two protocols were implemented for the fluorescence tests. • For compounds Ii-Ik: 125 μL of the preceding solution (absorbance solution) are diluted to 1.25 mL by adding 1125 μl of acetonitrile to a fluorescence cuvette. The analysis is then performed on the fluorescence spectrophotometer by excitation at the respective maximum-absorption wavelengths. • For compounds Ia-Ih and Il-Io: 1250 μl of the preceding solution (absorbance) are placed in a fluorescence cuvette. The analysis is then performed on the fluorescence spectrophotometer by excitation at the respective maximum-absorption wavelengths.

[3] = Photobleaching of stained standard proteins in gel under UV transilluminator; conditions: protein-stained gel, first-order exponential decay fit, deduced from FIG. 1
Experimental: The compounds were dissolved at 10 mg/mL in DMSO. The stock solutions obtained were diluted to 1 mg/mL in water and divided into 100 μL aliquots for storage. All the products and aliquots were stored at −80° C.
Standard proteins (SDS labeling kit-low molecular weight sold by GE, 17-0446-01) were diluted in an LDS buffer (250 μL Invitrogen 4×LDS buffer, 100 μL of 1 M DDT, 650 μL of water) to create serial dilutions ranging from 128 ng/STI band to 125 pg/STI band.
5 μL of each protein solution were loaded onto NuPAGE® Novex® 12% bis-tris gels (1.0 mm thick, 12 wells, Invitrogen NP0342BOX). The gels were subjected to a current of 150 V for approximately 65 minutes using MES buffer (50 mM MES, 50 mM tris, 1 mM EDTA, 0.1% SDS, pH 7.3) so that the buffer front arrives just up to the gel. After eluting the dye, the gels were fixed for 1 to 17 hours (100 mL of fixing solution with 15% EtOH (v/v) and 1% citric acid) in individual lanes. The fixing solution used was replaced with fresh solution one hour after staining. The gels were stained for 1 hour in 50 mL of sodium borate buffer at 100 mM (pH 10.9) containing either […] of LavaPurple gel dye (Fluorotechnics; LP-011005) or one of the test compounds (50 μL for a 1 mg/mL solution). The gels were treated with 100 mL of 15% ethanol and then washed with 100 mL of fixing solution for 30 minutes.
Imaging was performed using a Typhoon Trio imager (excitation: 532 nm, emission filter: 610BP30, 540 PMT, resolution: 100 μm) using a normal sensitivity. The recorded image corresponds to the scan at time zero. The gels were then placed in a UV transilluminator for 60, 146, 240, 330, 630 and 990 seconds (total exposure time), a Typhoon scanner image being recorded between each exposure. The volumes of the bands were analyzed using the Image-Quant TL software, and all the band volumes were normalized with phosphorylase B. The photobleaching was analyzed by graphically representing the band volumes as a function of the exposure time (GraphPad Prism v4 software) and by fitting the curve to a first-order exponential decay to determine a pseudofirst-order rate constant.
FIG. 1 represents the decrease of the normalized residual signal of compounds (Ii), (Ij), (Ik), (In) and (Io) according to the invention and of epicocconone.
From this FIGURE, the half-life times of the compounds may be deduced: […]

Structure (SMILES)	λ UV (nm), second maximum [1] [nm]	λ UV (nm), first maximum [1] [nm]	Δ Stokes [2]	λ fluo (λ excitation) (nm) [2] [nm]	Intensity normalized to 50 μM [2]	Half-life time [3] [min]
COCCOCCOc1ccc(C(=O)C2=C3C=C4CC(C)OC=C4C(=O)C3(C)OC2=O)cc1 (centres unmarked) [Ie, 3-(4-(2-(2-methoxyethoxy)ethoxy)benzoyl)-6,9a-dimethyl-5,6-dihydro-9aH-furo[3,2-g]isochromene-2,9-dione]	453	349	137	590	120	
COc1ccc(C(=O)C2=C3C=C4CC(C)OC=C4C(=O)C3(C)OC2=O)cc1 (centres unmarked) [Ib, 3-(4-methoxybenzoyl)-6,9a-dimethyl-5,6-dihydro-9aH-furo[3,2-g]isochromene-2,9-dione]	452	351	134	586	205	
COc1ccccc1C(=O)C1=C2C=C3CC(C)OC=C3C(=O)C2(C)OC1=O (centres unmarked) [If, 3-(2-methoxybenzoyl)-6,9a-dimethyl-5,6-dihydro-9aH-furo[3,2-g]isochromene-2,9-dione]	469	351	120	589	147	
CC1CC2=CC3=C(C(=O)c4ccco4)C(=O)OC3(C)C(=O)C2=CO1 (centres unmarked) [Ic, 3-(furan-2-carbonyl)-6,9a-dimethyl-5,6-dihydro-9aH-furo[3,2-g]isochromene-2,9-dione]	465	352	128	593	193	
CC1CC2=CC3=C(C(=O)c4ccccc4)C(=O)OC3(C)C(=O)C2=CO1 (centres unmarked) [Ia, 3-benzoyl-6,9a-dimethyl-5,6-dihydro-9aH-furo[3,2-g]isochromene-2,9-dione]	472	351	113	585	98	
CC1CC2=CC3=C(C(=O)c4ccc5ccccc5c4)C(=O)OC3(C)C(=O)C2=CO1 (centres unmarked) [Id, 3-(2-naphthoyl)-6,9a-dimethyl-5,6-dihydro-9aH-furo[3,2-g]isochromene-2,9-dione]	464	351	106	570	173	

Continued, values first:

λ UV (nm), second maximum [1] [nm]	λ UV (nm), first maximum [1] [nm]	Δ Stokes [2]	λ fluo (λ excitation) (nm) [2] [nm]	Intensity normalized to 50 μM [2]	Half-life time [3] [min]	Structure (SMILES)
520	364	89	609	4320	44.7	CC1(C)CC2=CC3=C(C(=O)/C=C(\O)c4ccc5ccccc5c4)C(=O)OC3(C)C(=O)C2=CO1 (centres unmarked) [Io, 3-(1-hydroxy-3-naphtalen-2-yl-3-oxopropenyl)-6,6,9a-trimethyl-5,6-dihydro-9aH-furo[3,2-g]isochromene-2,9-dione]
498	350	90	588	264		COc1ccc(C(=O)C(C)C(=O)C2=C3C=C4CC(C)(C)OC=C4C(=O)C3(C)OC2=O)cc1 (centres unmarked) [Il, 3-(3-(4-methoxyphenyl)-2-methyl-3-oxopropanoyl)-6,6,9a-trimethyl-5,6-dihydro-9aH-furo[3,2-g]isochromene-2,9-dione]
489	351	102	591	202		CC(C(=O)C1=C2C=C3CC(C)(C)OC=C3C(=O)C2(C)OC1=O)C(=O)c1ccccc1 (centres unmarked) [Im, 6,6,9a-trimethyl-3-(2-methyl-3-oxo-3-phenylpropanoyl)-5,6-dihydro-9aH-furo[3,2-g]isochromene-2,9-dione]
497	366	99	596	3020	18.3	COc1ccc(/C(O)=C/C(=O)C2=C3C=C4CC(C)OC=C4C(=O)C3(C)OC2=O)cc1 (centres unmarked) [Ii, (Z)-3-(3-hydroxy-3-(4-methoxyphenyl)acryloyl)-6,9a-dimethyl-5,6-dihydro-9aH-furo[3,2-g]isochromene-2,9-dione]
463	350	134	597	32		CC1CC2=CC3=C(C(=O)c4ccccc4O)C(=O)OC3(C)C(=O)C2=CO1 (centres unmarked) [Ig, 3-(2-hydroxybenzoyl)-6,9a-dimethyl-5,6-dihydro-9aH-furo[3,2-g]isochromene-2,9-dione]
512	365	94	606	4157	22.4	CC1(C)CC2=CC3=C(C(=O)/C=C(\O)c4ccccc4)C(=O)OC3(C)C(=O)C2=CO1 (centres unmarked) [Ik, (Z)-3-(3-hydroxy-3-phenylacryloyl)-6,6,9a-trimethyl-5,6-dihydro-9aH-furo[3,2-g]isochromene-2,9-dione]
525	363	87	612	2764	33.1	CC1(C)CC2=CC3=C(/C(O)=C/C(=O)c4ccc(Cl)nc4)C(=O)OC3(C)C(=O)C2=CO1 (centres unmarked) [In, 3-[3-(6-chloro-pyridin-3-yl)-1-hydroxy-3-oxopropenyl]-6,6,9a-trimethyl-5,6-dihydro-9aH-furo[3,2-g]isochromene-2,9-dione]
505	366	98	603	3988	6.6	COc1ccc(/C(O)=C/C(=O)C2=C3C=C4CC(C)(C)OC=C4C(=O)C3(C)OC2=O)cc1 (centres unmarked) [Ij, (Z)-3-(3-hydroxy-3-(4-methoxyphenyl)acryloyl)-6,6,9a-trimethyl-5,6-dihydro-9aH-furo[3,2-g]isochromene-2,9-dione]
460	354	130	590	155		COc1ccc(C(=O)C2=C3C=C4CC(C)(C)OC=C4C(=O)C3(C)OC2=O)cc1 (centres unmarked) [Ih, 3-(4-methoxybenzoyl)-6,6,9a-trimethyl-5,6-dihydro-9aH-furo[3,2-g]isochromene-2,9-dione]
